According to ChEMBL document CHEMBL3351522, “Discovery of structurally simplified analogs of colchicine as an immunosuppressant” (Bioorg Med Chem Lett, 2014):
Calls of active or inactive are those of the source. The calls are words filed in the database; no cut-off is given here.

Legend:
[1] = system: B-cell; test: Immunosuppressive activity in B cells (unknown origin) assessed as inhibition of LPS-induced cell proliferation at 3 to 30 ng/mL; type: functional, cell-based
[2] = system: T-cell; test: Immunosuppressive activity in T cells (unknown origin) assessed as inhibition of Con A-induced cell proliferation at 3 to 30 ng/mL; type: functional, cell-based
[3] = system: Mus musculus; test: Toxicity in male ICR-SPF mouse assessed as induction of body weight changes at 100 mg/kg, iv administered as single dose measured 14 days post dose; type: organism-based; design: dose 100 mg/kg, route intravenous; settings: in vivo, 336 h
[4] = system: Mus musculus; test: Toxicity in female ICR-SPF mouse assessed as induction of body weight changes at 100 mg/kg, iv administered as single dose measured 14 days post dose; type: organism-based; design: dose 100 mg/kg, route intravenous; settings: in vivo, 336 h
[5] = system: Mus musculus; test: Toxicity in male ICR-SPF mouse assessed as autopsy changes at 10 mg/kg, iv administered as single dose measured 14 days post dose; type: organism-based; design: dose 10 mg/kg, route intravenous; settings: in vivo, 336 h
[6] = system: Mus musculus; test: Toxicity in female ICR-SPF mouse assessed as autopsy changes at 10 mg/kg, iv administered as single dose measured 14 days post dose; type: organism-based; design: dose 10 mg/kg, route intravenous; settings: in vivo, 336 h
[7] = system: Mus musculus; test: Toxicity in male ICR-SPF mouse assessed as autopsy changes at 30 mg/kg, iv administered as single dose measured 14 days post dose; type: organism-based; design: dose 30 mg/kg, route intravenous; settings: in vivo, 336 h
[8] = system: Mus musculus; test: Toxicity in female ICR-SPF mouse assessed as autopsy changes at 30 mg/kg, iv administered as single dose measured 14 days post dose; type: organism-based; design: dose 30 mg/kg, route intravenous; settings: in vivo, 336 h
[9] = system: Mus musculus; test: Toxicity in male ICR-SPF mouse assessed as autopsy changes at 100 mg/kg, iv administered as single dose measured 14 days post dose; type: organism-based; design: dose 100 mg/kg, route intravenous; settings: in vivo, 336 h
[10] = system: Mus musculus; test: Toxicity in female ICR-SPF mouse assessed as autopsy changes at 100 mg/kg, iv administered as single dose measured 14 days post dose; type: organism-based; design: dose 100 mg/kg, route intravenous; settings: in vivo, 336 h
[11] = system: Mus musculus; test: Toxicity in iv dosed male ICR-SPF mouse administered as single dose measured 14 days post dose; type: organism-based; settings: in vivo, 336 h
[12] = system: Mus musculus; test: Toxicity in iv dosed female ICR-SPF mouse administered as single dose measured 14 days post dose; type: organism-based; settings: in vivo, 336 h
[13] = system: B-cell; test: Immunosuppressive activity in B cells (unknown origin) assessed as inhibition of LPS-induced cell proliferation at 1 to 100 ng/mL; type: functional, cell-based
[14] = system: T-cell; test: Immunosuppressive activity in T cells (unknown origin) assessed as inhibition of Con A-induced cell proliferation at 1 to 100 ng/mL; type: functional, cell-based
[15] = system: RAW264.7; test: Inhibition of nitric oxide production in mouse RAW264.7 cells at 1 to 100 ng/mL; type: functional, cell-based
[16] = system: Macrophage; test: Inhibition of nitric oxide production in bone marrow-derived macrophages (unknown origin) at 1 to 100 ng/mL; type: functional, cell-based
[17] = system: Dendritic cell; test: Inhibition of LPS-induced IL-12 production in bone marrow-derived dendritic cells (unknown origin) at 1 to 100 ng/mL; type: functional, cell-based
[18] = Toxicity in LPS-induced bone marrow-derived dendritic cells (unknown origin) assessed as effect on cell viability at 1 to 100 ng/mL; type: cell-based
[19] = species: Mus musculus; test: Immunosuppressive activity in SRBC immunized mouse assessed as suppression of B-cell mediated immune response; type: functional, organism-based
[20] = system: Mus musculus; test: Immunosuppressive activity in zymosan A-induced arthritis C57BL/6 mouse model assessed as reduction in pLN weight increase dosed after zymosan A challenge; type: functional, organism-based
[21] = system: Mus musculus; test: Immunosuppressive activity in carrageenan-induced paw edema C57BL/6 mouse model assessed as reduction in pLN weight increase dosed after carrageenan challenge; type: functional, organism-based
[22] = system: Mus musculus; test: Toxicity in C57BL/6 mouse assessed as induction of body weight loss at 1 mg/kg, iv dosed once daily for 4 days; type: organism-based; design: dose 1 mg/kg, route intravenous; settings: in vivo, 96 h
[23] = system: Mus musculus; test: Toxicity in C57BL/6 mouse assessed as induction of body weight loss at 0.1 to 3 mg/kg, iv dosed once daily for 4 days; type: organism-based; design: dose 0.1-3 mg/kg, route intravenous; settings: in vivo, 96 h
[24] = system: Mus musculus; test: Toxicity in C57BL/6 mouse assessed as induction of spleen weight loss at 0.1 to 3 mg/kg, iv dosed once daily for 4 days; type: organism-based; design: dose 0.1-3 mg/kg, route intravenous; settings: in vivo, 96 h
[25] = system: Mus musculus; test: Intestinal toxicity in C57BL/6 mouse assessed as induction of intestinal dilation at 1 mg/kg, iv dosed once daily for 4 days; type: organism-based; design: dose 1 mg/kg, route intravenous; settings: in vivo, 96 h
[26] = system: Mus musculus; test: Toxicity in male ICR-SPF mouse assessed as mortality incidences at 10 mg/kg, iv administered as single dose measured 14 days post dose; type: organism-based; design: dose 10 mg/kg, route intravenous; settings: in vivo, 336 h
[27] = system: Mus musculus; test: Toxicity in female ICR-SPF mouse assessed as mortality incidences at 10 mg/kg, iv administered as single dose measured 14 days post dose; type: organism-based; design: dose 10 mg/kg, route intravenous; settings: in vivo, 336 h
[28] = system: Mus musculus; test: Toxicity in male ICR-SPF mouse assessed as mortality incidences at 30 mg/kg, iv administered as single dose measured 14 days post dose; type: organism-based; design: dose 30 mg/kg, route intravenous; settings: in vivo, 336 h
[29] = system: Mus musculus; test: Toxicity in female ICR-SPF mouse assessed as mortality incidences at 30 mg/kg, iv administered as single dose measured 14 days post dose; type: organism-based; design: dose 30 mg/kg, route intravenous; settings: in vivo, 336 h
[30] = system: Mus musculus; test: Toxicity in male ICR-SPF mouse assessed as mortality incidences at 100 mg/kg, iv administered as single dose measured 14 days post dose; type: organism-based; design: dose 100 mg/kg, route intravenous; settings: in vivo, 336 h
[31] = system: Mus musculus; test: Toxicity in female ICR-SPF mouse assessed as mortality incidences at 100 mg/kg, iv administered as single dose measured 14 days post dose; type: organism-based; design: dose 100 mg/kg, route intravenous; settings: in vivo, 336 h
[32] = system: Mus musculus; test: Toxicity in male ICR-SPF mouse assessed as induction of body weight changes at 10 mg/kg, iv administered as single dose measured 14 days post dose; type: organism-based; design: dose 10 mg/kg, route intravenous; settings: in vivo, 336 h
[33] = system: Mus musculus; test: Toxicity in female ICR-SPF mouse assessed as induction of body weight changes at 10 mg/kg, iv administered as single dose measured 14 days post dose; type: organism-based; design: dose 10 mg/kg, route intravenous; settings: in vivo, 336 h
[34] = system: Mus musculus; test: Toxicity in male ICR-SPF mouse assessed as induction of body weight changes at 30 mg/kg, iv administered as single dose measured 14 days post dose; type: organism-based; design: dose 30 mg/kg, route intravenous; settings: in vivo, 336 h
[35] = system: Mus musculus; test: Toxicity in female ICR-SPF mouse assessed as induction of body weight changes at 30 mg/kg, iv administered as single dose measured 14 days post dose; type: organism-based; design: dose 30 mg/kg, route intravenous; settings: in vivo, 336 h

SMILES: COc1ccc(-c2ccc(OC)c(=O)cc2)c(OC)c1OC
- inhibition [1]: Active
- inhibition [2]: Active

SMILES: COc1cc2c(c(OC)c1OC)-c1ccc(SC)c(=O)cc1C=CC2
- Activity [3]: Non-toxic
- Activity [4]: Non-toxic
- Activity [5]: Non-toxic
- Activity [6]: Non-toxic
- Activity [7]: Non-toxic
- Activity [8]: Non-toxic
- Activity [9]: Non-toxic
- Activity [10]: Non-toxic
- MLD [11]: > 100 mg/kg
- MLD [12]: > 100 mg/kg
- inhibition [13]: Dose-dependent effect
- inhibition [14]: Dose-dependent effect
- inhibition [15]: Active
- inhibition [16]: inactive
- inhibition [17]: Dose-dependent effect
- Activity [18]: Non-toxic
- Activity [19]: Dose-dependent effect
- inhibition [20]: Dose-dependent effect
- inhibition [21]: Dose-dependent effect
- Activity [22]: Non-toxic
- Activity [23]: Non-toxic
- Activity [24]: Non-toxic
- Activity [25]: Non-toxic
- Activity [26]: Non-toxic
- Activity [27]: Non-toxic
- Activity [28]: Non-toxic
- Activity [29]: Non-toxic
- Activity [30]: Non-toxic
- Activity [31]: Non-toxic
- Activity [32]: Non-toxic
- Activity [33]: Non-toxic
- Activity [34]: Non-toxic
- Activity [35]: Non-toxic

SMILES: COc1cc2c(c(OC)c1OC)-c1ccc(SC)c(=O)cc1CCC2
- Activity [3]: Non-toxic
- Activity [4]: Non-toxic
- Activity [5]: Non-toxic
- Activity [6]: Non-toxic
- Activity [7]: Non-toxic
- Activity [8]: Non-toxic
- Activity [9]: Non-toxic
- Activity [10]: Non-toxic
- MLD [11]: > 100 mg/kg
- MLD [12]: > 100 mg/kg
- inhibition [13]: Dose-dependent effect
- inhibition [14]: Dose-dependent effect
- inhibition [15]: Active
- inhibition [16]: inactive
- inhibition [17]: Dose-dependent effect
- Activity [18]: Non-toxic
- Activity [19]: Dose-dependent effect
- inhibition [20]: Dose-dependent effect
- inhibition [21]: Dose-dependent effect
- Activity [22]: Non-toxic
- Activity [23]: Non-toxic
- Activity [24]: Non-toxic
- Activity [25]: Non-toxic
- Activity [26]: Non-toxic
- Activity [27]: Non-toxic
- Activity [28]: Non-toxic
- Activity [29]: Non-toxic
- Activity [30]: Non-toxic
- Activity [31]: Non-toxic
- Activity [32]: Non-toxic
- Activity [33]: Non-toxic
- Activity [34]: Non-toxic
- Activity [35]: Non-toxic

SMILES: COc1ccc(/C=C/c2ccc(OC)c(=O)cc2)c(OC)c1OC
- inhibition [1]: inactive
- inhibition [2]: inactive

SMILES: COc1ccc(C/C=C/c2ccc(OC)c(=O)cc2)c(OC)c1OC
- inhibition [1]: inactive
- inhibition [2]: inactive

SMILES: COc1cc(C/C=C/c2ccc(OC)c(=O)cc2)cc(OC)c1OC
- inhibition [1]: inactive
- inhibition [2]: inactive

SMILES: COc1cc2c(c(OC)c1OC)-c1ccc(SC)c(=O)cc1[C@@H](NC(=O)C1CC1C)CC2 (stereo partly specified)
- Activity [23]: Toxic
- Activity [24]: Toxic
- Activity [25]: Toxic

SMILES: COc1cc(/C=C/c2ccc(OC)c(=O)cc2)cc(OC)c1OC
- inhibition [1]: inactive
- inhibition [2]: inactive

SMILES: COc1ccc(-c2ccc(SC)c(=O)cc2)c(OC)c1OC
- inhibition [1]: Active
- inhibition [2]: Active
